Measured values taken from patent US8394765B2, “Methods of treating obesity with two different anti-obesity agents” (Amylin Pharmaceuticals LLC, priority 2004, dated 2013).

Assays:
[1] = DIO rats, amylin and phentermine, body weight and body composition (Example 4); format: in vivo, rat
Description: The combination of amylin and catecholaminergic agonist, phentermine, were also tested for effects on changes in body weight and body composition. Phentermine is classically referred to as a catecholaminergic agonist as it actually hits NA/5-HT receptors. DIO male rats were fattened and divided into four treatment groups, as described above. Each group was implanted with subcutaneous osmotic mini-pumps and/or inserted with an oral gavage, designed to deliver vehicle, phentermine (10 mg/kg/day), amylin (100 μg/kg/day) or phentermine (10 mg/kg/day)+amylin (100 μg/kg/day) for a 14 day period. The mini-pump contained either vehicle (50% DMSO in water) or amylin while the oral gavage administered either sterile water or phentermine. Body weight was recorded daily and body composition was measured prior to and after drug treatment using NMR.

[2] = 24-week randomized, double-blind, active-drug-controlled study of pramlintide and metreleptin in overweight and obese subjects (Example 8); format: in vivo, human
Description: To evaluate inter alia the safety, tolerability and effect of the combination of an amylin agonist (pramlintide) and a leptin (metreleptin) on changes in body weight, a 24-week, randomized, double-blind, active-drug-controlled, multicenter study was conducted under USFDA approved protocols. Secondary objectives of the study were the determination of the pharmacokinetics of pramlintide and leptin, waist circumference, rate of change in body weight, and patient reported outcomes including for example without limitation perception of well-being related to weight change and mood. The study enrolled overweight and obese subjects with defined BMI ([…]), with enrollment statistics as provided in Table 2. […] Subjects treated with pramlintide/metreleptin lost an average of 25 pounds from the start of the 24-week study compared with an average of 17 pounds for subjects treated with pramlintide alone.
In an initial lead-in phase, all subjects received dietary instructions and treatment with pramlintide at 180 mcg BID for two weeks, followed by pramlintide at 360 mcg BID for two weeks. Subjects who completed the 4-week lead-in period and who lost 2-8 percent body weight during this period were eligible to continue the study. The term “enrolled” (Table 2) refers to subjects (N=177) receiving at least one dose of pramlintide during the lead-in period. The term “non-randomized” refers to subjects not continuing in the study past the lead-in period. The term “evaluable” refers to subjects who completed Visit 9 (Week 16) study procedures and adequately complied with the study protocol.
After the 4-week lead-in period, for the remaining 20 weeks of the study the subjects were randomized in a 2:2:1 ratio to one of three groups with BID treatment of 1) pramlintide 360 mcg/metreleptin 5 mg (“Leptin+Pramlintide”); 2) pramlintide 360 mcg/placebo (“Pramlintide”); or 3) metreleptin 5 mg/placebo (“Leptin”).

[3] = DIO (Levin) rats, amylin and CB-1 antagonist rimonabant, body weight and body composition (Example 5); format: in vivo, rat
Description: These rats were developed by Barry Levin from a line of Crl:CD®(SD)BR rats that are prone to become obese on a diet relatively high in fat and energy. They were housed individually in shoebox cages at 22 C in a 12/12-hour light dark cycle. […] Rats were habituated to oral gavage for 1 week prior to treatment. Rimonabant was administered at a range of doses (0.1, 0.3, 1.0, 3.0. 10 mg/kg/day) by oral gavage. Amylin (dissolved in 50% DMSO sterile water) or vehicle was administered by mini-pump (100 μg/kg/day). Rimonabant was always delivered just prior to lights out. Food intake and body weight were measured at 1 and 2 weeks post-treatment. Body composition was measured prior to and after drug treatment using NMR (Echo Medical Systems, Houston, Tex.). For body composition measurements, rats were briefly placed (˜1 min) in a well-ventilated plexiglass tube that was then inserted into a specialized rodent NMR machine. Rats were scanned prior to pump implantation and on the final day of the experiment. This enabled the calculation of changes in actual grams of fat and dry lean tissue (e.g., grams of body fat after treatment−grams of body fat at baseline=change in grams of body fat) and changes in % body composition for fat and dry lean tissue (e.g., % body fat after treatment−% body fat at baseline=change in % body fat).

[4] = DIO rats, amylin and sibutramine, body weight and body composition (Example 4); format: in vivo, rat
Description: Rat amylin was dissolved in 50% DMSO in sterile water and sibutramine was dissolved in sterile water. Each group was implanted with subcutaneous osmotic mini-pumps designed to deliver vehicle, sibutramine (3 mg/kg/day) or amylin (100 μg/kg/day) for a 14 day period. Body weight and food intake were recorded daily. Body composition was measured prior to and after drug treatment using NMR (Echo Medical Systems, Houston, Tex.). For body composition measurements, rats were briefly placed (˜1 min) in a well-ventilated plexiglass tube that was then inserted into a specialized rodent NMR machine. Rats were scanned prior to pump implantation and on the final day of the experiment. This enabled the calculation of changes in actual grams of fat and dry lean tissue (e.g., grams of body fat after treatment−grams of body fat at baseline=change in grams of body fat) and changes in % body composition for fat and dry lean tissue (e.g., % body fat after treatment−% body fat at baseline=change in % body fat).

[5] = DIO rats, amylin and PYY(3-36), body weight and body composition (Example 7); format: in vivo, rat
Description: Each group was implanted with subcutaneous osmotic mini-pumps, designed to deliver vehicle, PYY(3-36) (1000 μg/kg/day), amylin (100 μg/kg/day) or PYY(3-36) (1000 μg/kg/day)+amylin (100 μg/kg/day) for a 14 day period. PYY(3-36) was administered by mini-pump at a range of doses (100, 200, 400, 800, 1000 μg/kg/day). Amylin 100 μg/kg/day (dissolved in 50% DMSO sterile water), PYY(3-36) (dissolved in 50% DMSO sterile water) or vehicle was administered by mini-pump. Food intake and body weight was recorded daily. Body composition was measured prior to and after drug treatment using NMR (Echo Medical Systems, Houston, Tex.). For body composition measurements, rats were briefly placed (˜1 min) in a well-ventilated plexiglass tube that was then inserted into a specialized rodent NMR machine. Rats were scanned prior to pump implantation and on the final day of the experiment. This enabled the calculation of changes in actual grams of fat and dry lean tissue (e.g., grams of body fat after treatment−grams of body fat at baseline […]) and changes in % body composition for fat and dry lean tissue (e.g., % body fat after treatment−% body fat at baseline=change in % body fat).

[6] = DIO rats, amylin and exendin-4 analog, body weight and body composition (Example 6); format: in vivo, rat
Description: […]. Prior to drug administration rats had typically attained a mean body weight of 500 g Exendin-4 analog was administered by minipump at a range of doses (0.3, 1, 3, 10, 30 μg/kg/day). Amylin (dissolved in 50% DMSO in water) or vehicle was administered by mini-pump (100 μg/kg/day). Body weight and food intake was recorded daily. Body composition was measured prior to and after drug treatment using NMR (Echo Medical Systems, Houston, Tex.). For body composition measurements, rats were briefly placed (˜1 min) in a well-ventilated plexiglass tube that was then inserted into a specialized rodent NMR machine. Rats were scanned prior to pump implantation and on the final day of the experiment. This enabled the calculation of changes in actual grams of fat and dry lean tissue (e.g., grams of body fat after treatment−grams of body fat at baseline=change in grams of body fat) and changes in % body composition for fat and dry lean tissue (e.g., % body fat after treatment−% body fat at baseline=change in % body fat).

[7] = compared to human amylin; cited from earlier work
[8] = treated test animals; e.g. provoking marked hyperlactemia followed by hyperglycemia; cited from earlier work
[9] = 4-week pramlintide lead-in, arm of later randomization

## CC(C)(N)Cc1ccccc1 [phentermine]
[1]; after two weeks, FIG. 11B
  changes in body fat (fat mass): modest amount of fat mass loss
[1]; after two weeks, FIG. 11C
  changes in body protein (lean mass): unchanged or tended to be lost
[1]; two weeks, phentermine 10 mg/kg/day oral gavage, amylin 100 μg/kg/day, FIG. 11A
  vehicle-corrected decrease in percent body weight: ~5%

## CC[C@H](C)[C@H](NC(=O)[C@@H]1CCCN1C(=O)CNC(=O)[C@H](Cc1ccccc1)NC(=O)[C@H](CC(N)=O)NC(=O)[C@H](CC(N)=O)NC(=O)[C@H](CO)NC(=O)[C@H](CO)NC(=O)[C@H](Cc1c[nH]cn1)NC(=O)[C@@H](NC(=O)[C@H](CC(C)C)NC(=O)[C@H](Cc1ccccc1)NC(=O)[C@H](CC(N)=O)NC(=O)[C@H](C)NC(=O)[C@H](CC(C)C)NC(=O)[C@H](CCCNC(=N)N)NC(=O)[C@H](CCC(N)=O)NC(=O)[C@@H](NC(=O)[C@H](C)NC(=O)[C@@H]1CSSC[C@H](NC(=O)[C@@H](N)CCCCN)C(=O)N[C@@H](CC(N)=O)C(=O)N[C@@H]([C@@H](C)O)C(=O)N[C@@H](C)C(=O)N[C@@H]([C@@H](C)O)C(=O)N1)[C@@H](C)O)C(C)C)C(=O)N[C@@H](CC(C)C)C(=O)N1CCC[C@H]1C(=O)N1CCC[C@H]1C(=O)N[C@H](C(=O)N[C@@H](CC(N)=O)C(=O)N[C@H](C(=O)NCC(=O)N[C@@H](CO)C(=O)N[C@@H](CC(N)=O)C(=O)N[C@H](C(=O)N[C@@H](Cc1ccc(O)cc1)C(N)=O)[C@@H](C)O)C(C)C)[C@@H](C)O [pramlintide]
[2]; 0-12 weeks, evaluable population, FIG. 24
  rate of change in body weight, early rate: −0.23±0.04 kg/week
[2]; 4-week lead-in period in which all subjects received pramlintide (180 then 360 mcg BID), arm of later randomization
  Mean Change in Body Weight: -3.65 kg
[2]; [9]
  % Weight Loss During Lead-in <5% (share of subjects): 77%
  % Weight Loss During Lead-in ≧5% (share of subjects): 23%
[2]; 12-20 weeks, evaluable population, FIG. 24
  rate of change in body weight, late rate: −0.02±0.04 kg/week
[2]; 12-20 weeks, FIG. 24
  weight reduction effect toward the end of the study (late rate, in words): approached a late rate of zero
[2]; human subjects, 24-week study
  course of weight loss towards the end of the study: weight had stabilized towards the end of the 24-week study
[2]; human subjects, end of 24-week study, pramlintide 360 mcg BID, metreleptin 5 mg BID, p<0.001
  body weight reduction on average: 8.4%
[2]; human subjects, pramlintide 360 mcg BID, metreleptin 5 mg BID
  average weight lost from the start of the 24-week study: 17 pounds

## Cc1c(C(=O)NN2CCCCC2)nn(-c2ccc(Cl)cc2Cl)c1-c1ccc(Cl)cc1 [rimonabant]
[3]; after two weeks, FIG. 12B
  changes in body fat (fat mass): Fat mass loss was evident
[3]; after two weeks, FIG. 12C
  changes in body protein (lean mass): relatively equivalent increase in lean (protein) mass
[3]; two weeks, rimonabant 3 mg/kg/day oral gavage, amylin 100 μg/kg/day, FIG. 12A
  vehicle-corrected decrease in percent body weight: ~4%

## CC(C)CC(N(C)C)C1(c2ccc(Cl)cc2)CCC1 (stereo not drawn) [sibutramine]
[4]; after two weeks, FIG. 10B
  changes in body fat (fat mass): Fat mass loss was evident
[4]; after two weeks, FIG. 10C
  changes in body protein (lean mass): relatively unchanged
[4]; two weeks, sibutramine 3 mg/kg/day, amylin 100 μg/kg/day, FIG. 10A
  vehicle-corrected decrease in percent body weight: ~6%

## PYY(3-36)
[5]; after two weeks, order PYY(3-36) alone, amylin alone, combination, FIG. 16B
  changes in body fat (fat mass loss): Increasing amount of fat mass loss
[5]; two weeks, PYY(3-36) 1000 μg/kg/day, amylin 100 μg/kg/day, FIG. 16A
  vehicle-corrected decrease in percent body weight: ~9%

## ^14Leu-exendin-4 [Exendin-4 analog]
[6]; after two weeks, FIG. 15B
  changes in body fat (fat mass): Fat mass loss was evident
[6]; after two weeks, FIG. 15C
  changes in body protein (lean mass): relatively equivalent increase in lean (protein) mass
[6]; two weeks, exendin-4 analog 10 μg/kg/day, amylin 100 μg/kg/day, FIG. 15A
  vehicle-corrected decrease in percent body weight: ~6%

## ^18Arg^25,28Pro-h-amylin (KCNTATCATQRLANFLVRSSNNFGPILPSTNVGSNTY)
[7]
  solubility and stability characteristics: more desirable solubility and stability characteristics
[8]
  amylin activity in vivo: show amylin activity in vivo

## ^25Pro^26Val^28,29 Pro-h-amylin (KCNTATCATQRLANFLVHSSNNFGPVLPPTNVGSNTY)
[7]
  solubility and stability characteristics: more desirable solubility and stability characteristics

## ^28Pro-h-amylin (KCNTATCATQRLANFLVHSSNNFGAILPSTNVGSNTY)
[8]
  amylin activity in vivo: show amylin activity in vivo

## des-^1Lys-h-amylin (CNTATCATQRLANFLVHSSNNFGAILSSTNVGSNTY)
[8]
  amylin activity in vivo: show amylin activity in vivo

## des-^1Lys^18Arg^25,28Pro-h-amylin (CNTATCATQRLANFLVHRSNNFGPILPSTNVGSNTY)
[8]
  amylin activity in vivo: show amylin activity in vivo

## metreleptin
[2]; 12-20 weeks, FIG. 24
  weight reduction effect toward the end of the study (late rate, in words): approached a late rate of zero
